Experimental data as given in patent publication US11787775B2, “Therapeutic compounds and methods of use” (priority 2020, dated 2023).

Legend:
Format in all cases: binding
TEAD1 = TEAD1 (Homo sapiens (Human), UniProt P28347); test: TEAD lipid pocket TR-FRET (Lipid HTRF) probe competition assay; conditions: 30 mins incubation with compound; read-out: Lipid HTRF TEAD1 IC50
Protocol: (§1) His-tagged TEAD proteins are pre-incubated with TEAD project compounds for 30 minutes or 4 hours at room temperature. Biotinylated lipid pocket probes are then added to the TEAD/Compound mixture and incubated for 60 minutes at room temperature. The lipid pocket probe competes with the test compound for the TEAD lipid pocket until equilibrium is reached. After 60 minutes, Europium labelled anti-His (Perkin Elmer #ADO 110) and XL665 labelled streptavidin (CIS Bio 610SAXAC) are added to the TEAD/test compound/lipid pocket mixture and incubated for 30 minutes or 4 hours. […] If a TEAD lipid pocket binder such as binds and displaces the lipid pocket probe, the disruption of the TEAD:probe interaction results in a decrease in TR-FRET signal. The potency of compounds as TEAD lipid pocket binders is determined by IC50 value generated using a non-linear 4 parameter curve fit.
(§2) Note that the “Compound Number” in Table 2 and Table 3 corresponds to the “Compound Number” in Table 1.

TEAD2 = TEAD2 (Homo sapiens (Human), UniProt Q15562); test: as above; conditions: 30 mins incubation with compound; read-out: Lipid HTRF TEAD2 IC50
Chain of TEAD2 (Q15562 whole entry): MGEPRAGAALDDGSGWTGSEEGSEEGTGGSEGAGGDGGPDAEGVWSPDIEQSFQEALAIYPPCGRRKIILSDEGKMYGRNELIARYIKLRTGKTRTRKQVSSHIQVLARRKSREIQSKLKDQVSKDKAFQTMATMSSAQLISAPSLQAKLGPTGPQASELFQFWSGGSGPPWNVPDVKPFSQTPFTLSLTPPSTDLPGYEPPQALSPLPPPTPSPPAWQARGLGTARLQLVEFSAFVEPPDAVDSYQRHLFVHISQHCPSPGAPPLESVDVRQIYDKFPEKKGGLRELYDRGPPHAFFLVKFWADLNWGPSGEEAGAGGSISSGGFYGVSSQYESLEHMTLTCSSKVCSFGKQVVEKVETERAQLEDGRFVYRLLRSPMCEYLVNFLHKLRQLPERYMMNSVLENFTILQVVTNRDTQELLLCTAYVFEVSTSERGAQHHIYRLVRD
Protocol: as §1, §2

TEAD3 = TEAD3 (Homo sapiens (Human), UniProt Q99594); test: as above; conditions: 30 mins incubation with compound
Chain of TEAD3 (Q99594 whole entry, species assumed): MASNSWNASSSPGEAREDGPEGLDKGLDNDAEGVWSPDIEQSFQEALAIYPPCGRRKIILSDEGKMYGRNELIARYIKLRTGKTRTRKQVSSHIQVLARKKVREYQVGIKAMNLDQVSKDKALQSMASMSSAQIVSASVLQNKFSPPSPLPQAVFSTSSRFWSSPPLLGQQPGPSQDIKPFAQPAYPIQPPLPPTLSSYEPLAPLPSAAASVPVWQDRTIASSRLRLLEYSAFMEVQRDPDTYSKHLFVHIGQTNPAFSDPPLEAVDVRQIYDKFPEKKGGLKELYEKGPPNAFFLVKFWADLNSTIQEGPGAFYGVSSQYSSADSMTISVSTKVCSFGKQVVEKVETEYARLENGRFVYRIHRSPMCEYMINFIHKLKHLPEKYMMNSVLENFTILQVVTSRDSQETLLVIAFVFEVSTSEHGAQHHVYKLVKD
Protocol: as §1, §2

TEAD4 = TEAD4 (Homo sapiens (Human), UniProt Q15561); test: as above; conditions: 30 mins incubation with compound; read-out: Lipid HTRF TEAD4 IC50
Chain of TEAD4 (Q15561 whole entry, species assumed): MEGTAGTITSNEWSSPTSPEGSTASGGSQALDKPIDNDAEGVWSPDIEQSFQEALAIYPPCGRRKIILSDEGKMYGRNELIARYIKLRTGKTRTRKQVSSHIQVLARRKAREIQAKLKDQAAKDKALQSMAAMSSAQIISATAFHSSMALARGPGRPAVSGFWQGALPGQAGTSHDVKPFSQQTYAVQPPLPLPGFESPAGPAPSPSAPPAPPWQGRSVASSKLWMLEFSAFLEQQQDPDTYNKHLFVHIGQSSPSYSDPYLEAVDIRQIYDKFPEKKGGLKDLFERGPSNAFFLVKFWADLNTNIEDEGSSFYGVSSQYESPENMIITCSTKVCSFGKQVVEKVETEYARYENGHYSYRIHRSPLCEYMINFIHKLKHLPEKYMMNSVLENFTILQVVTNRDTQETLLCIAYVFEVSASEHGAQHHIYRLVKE
Protocol: as §1, §2

TEAD1 YAP50-100 = TEAD1 YAP50-100 (Homo sapiens (Human), UniProt P28347); test: TEAD-YAP protein-protein interaction HTRF assay; conditions: TEAD1 YAP50-100 HTRF combined EC50, 30 mins incubation with compound
Chain of TEAD1 YAP50-100 (P28347 209-426): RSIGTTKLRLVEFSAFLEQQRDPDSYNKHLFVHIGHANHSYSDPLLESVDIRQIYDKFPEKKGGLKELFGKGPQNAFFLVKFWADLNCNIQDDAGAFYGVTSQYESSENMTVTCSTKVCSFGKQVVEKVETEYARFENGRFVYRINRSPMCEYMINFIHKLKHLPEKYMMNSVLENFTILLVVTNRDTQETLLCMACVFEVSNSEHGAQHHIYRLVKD
Protocol: (§3) Purified His-tagged TEAD protein (YAP Binding Domain, amino acids 217-447) is pre-incubated with Europium labelled anti-His antibody tracer (Perkin Elmer Cat #AD0110). Small molecule Inhibitors are then incubated with the TEAD-Eu protein complex for 30 minutes or 4 hours to allow for binding to TEAD protein. Biotinylated YAP peptide for TEAD-YAP assays (AA's 50-100) or biotinylated TAZ peptide for TEAD-TAZ assays (AA's 13-57) that has been pre-incubated with streptavidin −xl665 acceptor (CIS-Bio Cat #610SAXAC) or is added to the compound-TEAD mix. The TEAD-YAP-inhibitor mixture is then incubated for 60 minutes at room temperature. All reactions are carried out in a polystyrene plate. After 60 minutes, the plate is read on a plate reader using TR-FRET mode with wavelengths of 665 nm/615 nm. If YAP or TAZ binds to TEAD as expected, a TR-FRET signal results from the proximity of YAP or TAZ and TEAD after binding. If an inhibitor such as peptide 17 (Selleckchem Cat #S8164) interferes with YAP-TEAD or TAZ-TEAD binding, the disruption of the YAP or TAZ:TEAD interaction results in a decrease in TR-FRET signal. The potency of compounds as YAP:TEAD or TAZ:TEAD protein-protein interaction (PPi) inhibitors is determined by an IC50 or EC50 value generated using a non-linear four parameter curve fit. The extent to which representative examples of the disclosed compounds are able to inhibit interaction between TEAD1, TEAD2, TEAD3 or TEAD4 and YAP truncated from amino acids 50-100 or TAZ truncated from amino acids 13-57 as measured by Homogeneous Time Resolved Fluorescence (HTRF) to generate EC50 and IC50 data.
(§4) Note that the “Compound Number” in Table 4 corresponds to the “Compound Number” in Table 1. […]

TEAD2 YAP50-100 = TEAD2 YAP50-100 (Homo sapiens (Human), UniProt Q15562); test: TEAD-YAP protein-protein interaction HTRF assay; conditions: TEAD2 YAP50-100 HTRF combined EC50, 30 mins incubation with compound
Chain of TEAD2 YAP50-100 (Q15562 217-447): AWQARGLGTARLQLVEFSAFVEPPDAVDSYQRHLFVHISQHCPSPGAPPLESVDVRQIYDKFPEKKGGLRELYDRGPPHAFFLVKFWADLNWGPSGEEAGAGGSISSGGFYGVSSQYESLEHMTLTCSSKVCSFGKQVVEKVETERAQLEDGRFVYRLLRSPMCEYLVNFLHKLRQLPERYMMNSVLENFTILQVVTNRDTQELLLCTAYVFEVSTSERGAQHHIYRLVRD
Protocol: as §3, §4

TEAD3 YAP50-100 = TEAD3 YAP50-100 (Homo sapiens (Human), UniProt Q99594); test: TEAD-YAP protein-protein interaction HTRF assay; conditions: TEAD3 YAP50-100 HTRF combined EC50, 30 mins incubation with compound
Chain of TEAD3 YAP50-100 (Q99594 218-435): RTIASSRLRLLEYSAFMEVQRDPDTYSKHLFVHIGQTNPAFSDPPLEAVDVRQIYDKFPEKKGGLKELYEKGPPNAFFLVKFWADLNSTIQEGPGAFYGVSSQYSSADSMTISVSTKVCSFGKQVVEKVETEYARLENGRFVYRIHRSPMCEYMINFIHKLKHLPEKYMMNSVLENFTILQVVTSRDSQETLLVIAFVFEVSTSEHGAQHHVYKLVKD
Protocol: as §3, §4

TEAD4 YAP50-100 = TEAD4 YAP50-100 (Homo sapiens (Human), UniProt Q15561); test: TEAD-YAP protein-protein interaction HTRF assay; conditions: TEAD4 YAP50-100 HTRF combined EC50, 30 mins incubation with compound
Chain of TEAD4 YAP50-100 (Q15561 217-434): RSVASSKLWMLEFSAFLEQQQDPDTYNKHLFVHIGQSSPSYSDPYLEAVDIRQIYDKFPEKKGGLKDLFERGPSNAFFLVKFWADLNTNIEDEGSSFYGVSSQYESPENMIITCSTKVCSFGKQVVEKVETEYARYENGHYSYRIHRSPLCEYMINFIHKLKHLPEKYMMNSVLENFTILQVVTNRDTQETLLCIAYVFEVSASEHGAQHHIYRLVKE
Protocol: as §3, §4

Chain of TEAD1 (P28347 whole entry, species assumed): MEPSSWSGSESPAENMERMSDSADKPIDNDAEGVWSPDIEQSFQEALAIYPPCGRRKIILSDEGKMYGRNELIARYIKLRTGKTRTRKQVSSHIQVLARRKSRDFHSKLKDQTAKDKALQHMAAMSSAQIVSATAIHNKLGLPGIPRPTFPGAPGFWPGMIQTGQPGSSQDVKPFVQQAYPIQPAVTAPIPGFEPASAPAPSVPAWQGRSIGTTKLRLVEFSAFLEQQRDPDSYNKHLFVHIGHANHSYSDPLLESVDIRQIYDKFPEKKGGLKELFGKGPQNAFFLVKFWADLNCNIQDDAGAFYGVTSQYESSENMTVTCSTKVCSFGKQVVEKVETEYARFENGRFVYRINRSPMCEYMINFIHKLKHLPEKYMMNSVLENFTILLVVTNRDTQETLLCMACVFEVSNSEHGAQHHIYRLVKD

SMILES | IC50 (TEAD1) [µM] | IC50 (TEAD2) [µM] | IC50 (TEAD3) [µM] | IC50 (TEAD4) [µM] | EC50 (TEAD1 YAP50-100) [µM] | EC50 (TEAD2 YAP50-100) [µM] | EC50 (TEAD3 YAP50-100) [µM] | EC50 (TEAD4 YAP50-100) [µM]
C=C(CNc1cc(-c2ccc(C(F)(F)F)cc2)c2c(c1C#N)CCO2)C(=O)O [Compound 15, 2-[[[4-cyano-7-[4-(trifluoromethyl)phenyl]-2,3-dihydrobenzofuran-5-yl]amino]methyl]prop-2-enoic acid] | 0.05 | 0.53 | 3.4 | 0.11 | 0.04 | 0.38 | 11 | 0.25
C=C(CNc1cc(-c2ccc(OC(F)(F)F)cc2)c2c(c1C#N)CCO2)C(=O)O [Compound 18, 2-[[[4-cyano-7-[4-(trifluoromethoxy)phenyl]-2,3-dihydrobenzofuran-5-yl]amino]methyl]prop-2-enoic acid] | 0.03 | 0.14 | 2.5 | 0.03 | 0.02 | 0.09 | 7.8 | 0.06
C=C(CNc1cc(-c2ccc(C(C)(F)F)cc2)c2c(c1C#N)CCO2)C(=O)O [Compound 19, 2-[[[4-cyano-7-[4-(1,1-difluoroethyl)phenyl]-2,3-dihydrobenzofuran-5-yl]amino]methyl]prop-2-enoic acid] | 0.05 | 0.35 | 6.4 | 0.11 | 0.04 | 0.19 | 15 | 0.23
C=C(CNc1nc2c(c(-c3ccc(C(C)C)cc3)n1)OCC2)C(=O)O [Compound 20, 2-[[[4-(4-isopropylphenyl)-6,7-dihydrofuro[3,2-d]pyrimidin-2-yl]amino]methyl]prop-2-enoic acid] | 0.2 | 0.07 | 3.8 | 0.02 | 0.15 | 0.04 | > 50 | 0.04
C=C(CNc1cc(-c2ccc(C(C)C)cc2)c2c(c1F)CCO2)C(=O)O [Compound 21, 2-[[[4-fluoro-7-(4-isopropylphenyl)-2,3-dihydrobenzofuran-5-yl]amino]methyl]prop-2-enoic acid] | 0.06 | 0.07 | 4 | 0.02 | 0.04 | < 0.01 | > 50 | 0.03
C=C(CNc1nc(-c2ccc(C(C)C)cc2)c2c(c1C#N)CCO2)C(=O)O [Compound 22, 2-[[[4-cyano-7-(4-isopropylphenyl)-2,3-dihydrofuro[2,3-c]pyridin-5-yl]amino]methyl]prop-2-enoic acid] | 0.09 | 0.1 | 15 | 0.05 | 0.06 | 0.06 | > 50 | 0.1
C=C(CNc1cc(-c2ccc(C(C)(F)F)cc2)c2ncsc2c1C#N)C(=O)O [Compound 24, 2-[[[7-cyano-4-[4-(1,1-difluoroethyl)phenyl]-1,3-benzothiazol-6-yl]amino]methyl]prop-2-enoic acid] | 0.16 | 0.74 | 20 | 0.37 | 0.08 | 0.26 | 15 | > 50
C=C(CNc1cnc(OC)c(/C=C/[C@H]2CC[C@H](C(F)(F)F)CC2)c1)C(=O)O [Compound 25, 2-[[[6-methoxy-5-[(E)-2-[trans-4-(trifluoromethyl)cyclohexyl]vinyl]-3-pyridyl]amino]methyl]prop-2-enoic acid] | 0.58 | 0.27 | 1.25 | 0.14 | > 50 | > 50 | > 50 | > 50
C=C(CNc1cc(-c2c(F)cc(C(C)C)cc2F)c2c(c1C#N)CCO2)C(=O)O [Compound 28, 2-[[[4-cyano-7-(2,6-difluoro-4-isopropyl-phenyl)-2,3-dihydrobenzofuran-5-yl]amino]methyl]prop-2-enoic acid] | 0.69 | 0.35 | 16 | 0.32 | > 50 | > 50 | > 50 | > 50
C=C(CNc1cc(-c2ccc(C(C)C)cc2F)c2c(c1C#N)CCO2)C(=O)O [Compound 30, 2-[[[4-cyano-7-(2-fluoro-4-isopropyl-phenyl)-2,3-dihydrobenzofuran-5-yl]amino]methyl]prop-2-enoic acid] | 0.05 | 0.1 | 5.9 | 0.03 | 0.03 | 0.04 | 8.2 | 0.04
C=C(CNc1cc(-c2ccc(C(C)C)cc2)c2c(c1C(N)=O)CCO2)C(=O)O [Compound 34, 2-[[[4-carbamoyl-7-(4-isopropylphenyl)-2,3-dihydrobenzofuran-5-yl]amino]methyl]prop-2-enoic acid] | 1.8 | 0.97 | > 50 | 0.33 | 1 | 0.58 | > 50 | 0.7
C=C(CNc1cc(-c2ccc(OC(F)(F)F)cc2)c2ncsc2c1C#N)C(N)=O [Compound 42, 2-[[[7-cyano-4-[4-(trifluoromethoxy)phenyl]-1,3-benzothiazol-6-yl]amino]methyl]prop-2-enamide] | 0.37 | 0.14 | > 50 | 0.26 | > 50 | > 50 | > 50 | > 50
C=C(CNc1cc(-c2ccc(C(C)C)cn2)c2c(c1C#N)CCO2)C(=O)O [Compound 47, 2-[[[4-cyano-7-(5-isopropyl-2-pyridyl)-2,3-dihydrobenzofuran-5-yl]amino]methyl]prop-2-enoic acid] | 2.2 | 2.7 | > 50 | 1.5 | 1.9 | 1.9 | > 50 | 3.4
C=C(CNc1cc(-c2ccc(C(C)C)cc2)c2c(c1S(C)(=O)=O)CCO2)C(=O)O [Compound 50, 2-[[[7-(4-isopropylphenyl)-4-methylsulfonyl-2,3-dihydrobenzofuran-5-yl]amino]methyl]prop-2-enoic acid] | 0.74 | 0.1 | 44.5 | 0.59 | 0.53 | 0.08 | 17 | 2
